The target of series [1] is T1, σ1-receptor (Cavia porcellus, UniProt Q60492).
T1 construct: guinea pig brains were homogenized; from tissue; host or cells: guinea pig brain membranes
In words: Sigma-1 receptor binding, [3H](+)-pentazocine, brain membranes. More on the design: species or system guinea pig. As to conditions: for inhibition at 0.1 µM: 10^−7 M. The method, then: Brain membrane preparation and binding assays for the σ1-receptor were performed as described (DeHaven-Hudkins et al., 1992) with some modifications. In brief, guinea pig brains were homogenized in 10 vols. (w/v) of Tris-HCl 50 mM 0.32 M sucrose, pH 7.4, with a Kinematica Polytron PT 3000 at 15000 r.p.m. for 30 s. The homogenate was centrifuged at 1000 g for […] at 4° C. and the supernatants collected and centrifuged again at 48000 g for 15 min at 4° C. The pellet was resuspended in 10 volumes of Tris-HCl buffer (50 mM, pH 7.4), incubated at 37° C. for 30 min, and centrifuged at 48000 g for 20 min at 4° C. Following this, the pellet was resuspended in fresh Tris-HCl buffer (50 mM, pH 7.4) and stored on ice until use.
Each assay tube contained 10 μL of [^3H](+)-pentazocine (final concentration of 0.5 nM), 900 μL of the tissue suspension to a final assay volume of 1 mL and a final tissue concentration of approximately 30 mg tissue net weight/mL. […] All tubes were incubated at 37° C. for 150 min before termination of the reaction by rapid filtration over Schleicher & Schuell GF 3362 glass fibre filters [previously soaked in a solution of 0.5% polyethylenimine for at least 1 h]. Filters were then washed with four times with 4 mL of cold Tris-HCl buffer (50 mM, pH 7.4). Following addition of scintillation cocktail, the samples were allowed to equilibrate overnight. The amount of bound radioactivity was determined by liquid scintillation spectrometry using a Wallac Winspectral 1414 liquid scintillation counter. Protein concentrations were determined by the method of Lowry et al. (1951).

Where a name gives a salt, the structure may show the parent alone.

T1 sequence (Q60492 whole entry): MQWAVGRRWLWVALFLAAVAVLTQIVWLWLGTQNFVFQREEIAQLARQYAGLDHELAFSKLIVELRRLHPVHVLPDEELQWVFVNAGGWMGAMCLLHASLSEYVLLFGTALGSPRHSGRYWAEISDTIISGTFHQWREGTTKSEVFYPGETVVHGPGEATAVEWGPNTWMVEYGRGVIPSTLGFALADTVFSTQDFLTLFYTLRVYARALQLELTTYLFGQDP

The melting point is the temperature of the solid-liquid transition. As to `Clc1ccc(-n2ccc(OCCCN3CCCC3)n2)cc1Cl` (as salt: hydrochloride) [Example 41, 1-(3,4-dichlorophenyl)-3-[3-(pyrrolidin-1-yl)propoxy]-1H-pyrazole], the melting point is 156 to 159 °C.

As usually defined, the inhibition is the change of the read-out against control, counted positive when it falls. Turning to `Cc1cc(OCCN2CCCC2)nn1-c1ccc(Cl)c(Cl)c1.Cl` [Example 3, 1-(3,4-Dichlorophenyl)-5-methyl-3-[2-(pyrrolidin-1-yl)ethoxy]-1H-pyrazole hydrochloride], the melting point was > 280 °C (dec.). The inhibition at 0.1 µM in series [1] is 102%.

The molecule `Cc1cc(OCCCN2CCCC2)nn1-c1ccc(Cl)c(Cl)c1.Cl` [Example 4, 1-(3,4-Dichlorophenyl)-5-methyl-3-[3-(pyrrolidin-1-yl)propoxy]-1H-pyrazole hydrochloride] displayed a melting point of 149 to 155 °C. In addition, the inhibition at 0.1 µM in series [1] amounted to 98%.

In turn, `Cc1cc(OCCN2CCCCC2)nn1-c1ccc(Cl)c(Cl)c1` [Example 5, 1-{2-[1-(3,4-dichlorophenyl)-5-methyl-1H-pyrazol-3-yloxy]ethyl}piperidine] yielded a melting point of 119 to 122 °C. Also, the inhibition at 0.1 µM in series [1] came to 108%.

`Cc1cc(OCCn2ccnc2)nn1-c1ccc(Cl)c(Cl)c1` [Example 6, 1-{2-[1-(3,4-dichlorophenyl)-5-methyl-1H-pyrazol-3-yloxy]ethyl}-1H-imidazole] showed a melting point of 111 to 112 °C.

`Cc1cc(OCCN2CCC(n3cnc4cccnc43)CC2)nn1-c1ccc(Cl)c(Cl)c1` [Example 7, 3-{1-[2-(1-(3,4-Dichlorophenyl)-5-methyl-1H-pyrazol-3-yloxy)ethyl]piperidin-4-yl}-3H-imidazo[4,5-b]pyridine] gave a melting point of 104 to 107 °C. In addition, in series [1], the inhibition at 0.1 µM worked out at 94.4%.

`Cl.Clc1ccc(-n2nc(OCCN3CCOCC3)cc2-c2ccccc2)cc1Cl` [Example 16, 4-{2-[1-(3,4-Dichlorophenyl)-5-phenyl-1H-pyrazol-3-yloxy]ethyl}morpholine hydrochloride] had a melting point of 197 to 207 °C. Further, in series [1], the inhibition at 0.1 µM is 46.5%.

In turn, `Cl.Clc1ccc(-n2nc(OCCN3CCCC3)cc2-c2ccccc2)cc1Cl` [Example 17, 1-(3,4-Dichlorophenyl)-5-phenyl-3-[2-(pyrrolidin-1-yl)ethoxy]-1H-pyrazole hydrochloride] yielded a melting point of 137 to 147 °C. Besides, in series [1], the inhibition at 0.1 µM was found to be 47.3%.

The molecule `Cl.Clc1ccc(-n2nc(OCCN3CCc4ccccc4C3)cc2-c2ccccc2)cc1Cl` [Example 21, 2-{2-[1-(3,4-Dichlorophenyl)-5-phenyl-1H-pyrazol-3-yloxy]ethyl}-1,2,3,4-tetrahydroisoquinoline hydrochloride] showed a melting point of 185 to 189 °C. Moreover, in series [1], the inhibition at 0.1 µM is 45.5%.

By Ki is commonly meant the dissociation constant of the complex between target and ligand, obtained from inhibition or displacement. Read a high Ki as lower affinity. `Cc1cc(OCCCCN2CCOCC2)nn1-c1ccc(Cl)c(Cl)c1.Cl` [Example 22, 4-{4-[1-(3,4-Dichlorophenyl)-5-methyl-1H-pyrazol-3-yloxy]butyl}morpholine hydrochloride]: the melting point was in the range of 150 to 154 °C. In addition, in series [1], the Ki turned out to be 2.5 nM and the inhibition at 0.1 µM turned out to be 97%.

`Cc1cc(OCCCCN2CCCCC2)nn1-c1ccc(Cl)c(Cl)c1.Cl` [Example 24, 1-{4-[1-(3,4-Dichlorophenyl)-5-methyl-1H-pyrazol-3-yloxy]butyl}piperidine hydrochloride] returned a melting point of 156 to 161 °C. Further, in series [1], affinity was put at a Ki of 0.5 nM and the inhibition at 0.1 µM was 110%.

`Cc1cc(OCCCCN2CCN(C)CC2)nn1-c1ccc(Cl)c(Cl)c1.Cl.Cl` [Example 25, 1-{4-[1-(3,4-Dichlorophenyl)-5-methyl-1H-pyrazol-3-yloxy]butyl}-4-methylpiperazine dihydrochloride] showed a melting point of 181 to 185 °C. Further, in series [1], affinity was put at a Ki of 3.9 nM and the inhibition at 0.1 µM came to 94.2%.

The molecule `Cc1cc(OCCCCN2CCC(c3ccccc3)CC2)nn1-c1ccc(Cl)c(Cl)c1.Cl` [Example 28, 1-{4-[1-(3,4-dichlorophenyl)-5-methyl-1H-pyrazol-3-yloxy]butyl}-4-phenylpiperidine hydrochloride] returned a melting point of 166 to 170 °C. Moreover, the inhibition at 0.1 µM in series [1] was found to be 95.1%.

Turning to `CC(C)c1cc(OCCN2CCOCC2)nn1-c1ccc(Cl)c(Cl)c1.Cl` [Example 31, 4-{2-[1-(3,4-dichlorophenyl)-5-isopropyl-1H-pyrazol-3-yloxy]ethyl}morpholine hydrochloride], the melting point is 195 to 197 °C. Also, the inhibition at 0.1 µM in series [1] stood at 68.6%.

Regarding `CC(C)c1cc(OCCN2CCCC2)nn1-c1ccc(Cl)c(Cl)c1.Cl` [Example 33, 1-(3,4-Dichlorophenyl)-5-isopropyl-3-[2-(pyrrolidin-1-yl)ethoxy]-1H-pyrazole hydrochloride], the melting point is 138 to 142 °C. Moreover, the inhibition at 0.1 µM in series [1] worked out at 87.1%.

Turning to `CC(C)c1cc(OCCCN2CCCC2)nn1-c1ccc(Cl)c(Cl)c1.Cl` [Example 34, 1-(3,4-Dichlorophenyl)-5-isopropyl-3-[3-(pyrrolidin-1-yl)propoxy]-1H-pyrazole hydrochloride], the melting point fell in the range of 152 to 156 °C. For the same molecule, in series [1], the affinity, expressed as Ki, was 12.4 nM and the inhibition at 0.1 µM was 104%.

Regarding `CC(C)c1cc(OCCN2CCc3ccccc3C2)nn1-c1ccc(Cl)c(Cl)c1.Cl` [Example 36, 2-{2-[1-(3,4-dichlorophenyl)-5-isopropyl-1H-pyrazol-3-yloxy]ethyl}-1,2,3,4-tetrahydroisoquinoline hydrochloride], the melting point was 186 to 191 °C. In addition, the inhibition at 0.1 µM in series [1] amounted to 52.7%.

In turn, `Cc1c(OCCN2CCCCC2)nn(-c2ccc(Cl)c(Cl)c2)c1C` [Example 48, 1-(2-(1-(3,4-Dichlorophenyl)-4,5-dimethyl-1H-pyrazol-3-yloxy)ethyl)piperidine] gave a melting point of 64 to 67 °C.

In turn, `Cc1cc(OCCN2CCCCC2)nn1-c1ccc2ccccc2c1.Cl` [Example 63, 1-{2-[5-Methyl-1-(naphthalen-2-yl)-1H-pyrazol-3-yloxy]ethyl}piperidine hydrochloride] had a melting point of 198 to 202 °C. The inhibition at 0.1 µM in series [1] was found to be 105%.

Consider `Cc1cc(OCCN2CCCC2)nn1-c1ccc2ccccc2c1.Cl` [Example 64, 5-Methyl-1-(naphthalen-2-yl)-3-[2-(pyrrolidin-1-yl)ethoxy]-1H-pyrazole hydrochloride], for which the melting point was 170 to 171 °C. Also, the inhibition at 0.1 µM in series [1] was found to be 105%.

Source of the values: patent US8470867B2, “Sigma receptor inhibitors” (Laboratorios Del Dr. Esteve, S.A., priority 2004, dated 2013).
